This is an account of results in ChEMBL document CHEMBL1926660, “4-Aminoethylpiperazinyl aryl ketones with 5-HT₁A/5-HT₇ selectivity” (Bioorg Med Chem, 2012).

One may read the inhibition as the drop in the measured response relative to a control, in per cent.

Assay [1] addresses 5-hydroxytryptamine receptor 7 (Homo sapiens) (UniProt P34969). The assay can be described thus: Displacement of […] from human 5-HT7 receptor expressed in HEK293 cells at 10 uM. It counts as cell-based.
Assay [2] has as its target T1, 5-hydroxytryptamine receptor 1A (Homo sapiens) (UniProt P08908).
T1 sequence (whole entry): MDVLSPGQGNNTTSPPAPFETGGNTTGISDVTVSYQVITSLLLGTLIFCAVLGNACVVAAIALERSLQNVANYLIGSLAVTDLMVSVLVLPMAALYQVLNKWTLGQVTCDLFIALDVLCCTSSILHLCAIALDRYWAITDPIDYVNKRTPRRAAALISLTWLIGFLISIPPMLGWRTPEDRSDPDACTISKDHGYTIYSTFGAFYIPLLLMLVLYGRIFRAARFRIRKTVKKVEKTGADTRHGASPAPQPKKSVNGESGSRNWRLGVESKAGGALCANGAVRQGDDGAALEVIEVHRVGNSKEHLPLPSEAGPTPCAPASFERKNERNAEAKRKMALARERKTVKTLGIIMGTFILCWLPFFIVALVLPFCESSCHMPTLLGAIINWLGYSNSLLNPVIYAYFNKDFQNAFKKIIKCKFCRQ
Briefly: Displacement of [3H]LSD from human 5-HT1A receptor expressed in CHO-K1 cells at 10 uM. Format: cell-based. (Displacement assays read how much labelled ligand stays bound in the presence of the test substance.)

Chain of 5-hydroxytryptamine receptor 7 (Homo sapiens) (P34969 whole entry): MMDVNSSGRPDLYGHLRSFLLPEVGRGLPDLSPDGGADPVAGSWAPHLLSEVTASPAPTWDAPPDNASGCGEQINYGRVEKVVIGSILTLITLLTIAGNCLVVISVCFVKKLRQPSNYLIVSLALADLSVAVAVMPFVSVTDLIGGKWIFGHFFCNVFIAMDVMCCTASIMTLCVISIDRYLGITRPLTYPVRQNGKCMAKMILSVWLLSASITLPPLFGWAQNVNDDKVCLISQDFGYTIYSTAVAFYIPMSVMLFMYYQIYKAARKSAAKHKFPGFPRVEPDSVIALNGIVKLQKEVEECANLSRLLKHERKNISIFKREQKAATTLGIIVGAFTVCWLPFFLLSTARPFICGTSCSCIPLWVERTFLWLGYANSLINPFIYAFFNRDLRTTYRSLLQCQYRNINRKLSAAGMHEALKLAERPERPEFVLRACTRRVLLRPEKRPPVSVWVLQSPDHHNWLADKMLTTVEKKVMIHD

Take `CC(C)(C)CCNCCN1CCN(C(=O)c2ccc(Cl)c(Cl)c2)CC1`: the inhibition in assay [1] is 2%; in assay [2] it was 65.2%.

As for `CC(C)(C)CCNCCN1CCN(C(=O)c2ccc(Cl)cc2)CC1`, the figures for the inhibition in assay [1] and in assay [2] were -0.6% and 36.7%, respectively.

As for `CC(C)c1cc(CNCCN2CCN(C(=O)c3ccc(Cl)c(Cl)c3)CC2)on1`, the inhibition in assay [1] amounted to 16.1%; in assay [2], 76.4%.

Regarding `CC(C)c1cc(CNCCN2CCN(C(=O)c3cc(C(F)(F)F)cc(C(F)(F)F)c3)CC2)on1`, the figures for the inhibition in assay [1] and in assay [2] were -0.3% and 13%, respectively.

For the compound `O=C(c1ccc(Cl)c(Cl)c1)N1CCN(CCNCCCc2nc3ccccc3[nH]2)CC1`, the results for the inhibition in assay [1] and in assay [2] were 56.2% and 49.5%, respectively.

As for `CC(C)(C)CCNCCN1CCN(C(=O)c2cc(C(F)(F)F)cc(C(F)(F)F)c2)CC1`, the inhibition in assay [1] was -0.3%; in assay [2] it was -4.4%.

`CC(C)c1cc(CNCCN2CCN(C(=O)c3cc(Cl)cc(Cl)c3)CC2)on1`: the figures for the inhibition in assay [1] and in assay [2] were -0.2% and 43.2%, respectively.

Consider `O=C(c1cc(C(F)(F)F)cc(C(F)(F)F)c1)N1CCN(CCNCCCc2nc3ccccc3[nH]2)CC1`, for which the inhibition in assay [1] stood at 45.4%; in assay [2], 87.7%.

In the case of `O=C(c1ccc(Cl)cc1)N1CCN(CCNCCCc2nc3ccccc3[nH]2)CC1`, the results for the inhibition in assay [1] and in assay [2] were 36.8% and 47.5%, respectively.

Consider `CC(C)(C)CCNCCN1CCN(C(=O)c2cc(Cl)cc(Cl)c2)CC1`, for which the inhibition in assay [1] is -0.6%; in assay [2], 33.7%.

Regarding `O=C(c1cc(Cl)cc(Cl)c1)N1CCN(CCNCCCc2nc3ccccc3[nH]2)CC1`, the figures for the inhibition in assay [1] and in assay [2] were 62.7% and 90.1%, respectively.

In the case of `CC(C)c1cc(CNCCN2CCN(C(=O)c3ccc(Cl)cc3)CC2)on1`, the inhibition in assay [1] came to 93.6%; in assay [2], 56.5%.
